Experimental data reported in publication PMC7377239, “Cardiovascular Effects of Polychlorinated Biphenyls and Their Major Metabolites” (Environmental Health Perspectives, 2020).
Like-named read-outs stand apart in the source and are kept apart here.

Test system: iCell cardiomyocytes (human iPSC-derived cardiomyocytes)
Experiment: Intracellular Ca2+ flux / beating parameters in iCell cardiomyocytes (FLIPR tetra), 90 min or 24 h
Type: cell-based
Settings: Homo sapiens, Cardiomyocyte, 0.00 µM = 100.00; for activity at 0.1 µM: 0.10 µM
Procedure, shortened: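 PODs were defined as the concentration crossing one SD of the vehicle-control means (0.5% DMSO) on four-parameter logistic fits of Ca2+ trace metrics (peak height, frequency, peak-spacing CV, decay/rise ratio). Traces came from 100 s, 8 Hz FLIPR reads at 37 °C on calcium-dye-loaded iCell cardiomyocytes. Before reading, cells were treated for 90 min or 24 h from 5× chemical plates spanning 0.05–500 µM, in triplicate.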

[1] = 1.5 h, read-out: cm.amp.avg.90min
[2] = 1.5 h, read-out: cm.amp.cv.90min
[3] = 1.5 h, read-out: cm.decay.rise.90min
[4] = 1.5 h, read-out: cm.spacing.cv.90min
[5] = 24 h, read-out: cm.amp.avg.24hrs
[6] = 24 h, read-out: cm.amp.cv.24hrs
[7] = 24 h, read-out: cm.decay.rise.24hrs
[8] = 24 h, read-out: cm.spacing.cv.24hrs

Oc1cccc(-c2ccc(Cl)cc2)c1 [3'-OH PCB3]
activity at 0.01 µM [1]: 95.3%
activity at 0.01 µM [2]: 94.5%
activity at 0.01 µM (1.5 h, read-out: cm.bpm.90min): 97.8%
activity at 0.01 µM [3]: 96.7%
activity at 0.01 µM [4]: 101%
activity at 0.1 µM [1]: 100%
activity at 0.1 µM [2]: 80.2%
activity at 0.1 µM (1.5 h, read-out: cm.bpm.90min): 102%
activity at 0.1 µM [3]: 97.5%
activity at 0.1 µM [4]: 106%
activity at 1 µM [1]: 97.7%
activity at 1 µM [2]: 92.4%
activity at 1 µM (1.5 h, read-out: cm.bpm.90min): 105%
activity at 1 µM [3]: 102%
activity at 1 µM [4]: 98.3%
activity at 10 µM [1]: 90.4%
activity at 10 µM [2]: 103%
activity at 10 µM (1.5 h, read-out: cm.bpm.90min): 130%
activity at 10 µM [3]: 97.2%
activity at 10 µM [4]: 123%
activity at 100 µM [1]: 0%
activity at 100 µM [2]: 0%
activity at 100 µM (1.5 h, read-out: cm.bpm.90min): 0%
activity at 100 µM [3]: 0%
activity at 100 µM [4]: 0%
activity at 0.01 µM [5]: 82.3%
activity at 0.01 µM [6]: 114%
activity at 0.01 µM (24 h, read-out: cm.bpm.24hrs): 104%
activity at 0.01 µM [7]: 102%
activity at 0.01 µM [8]: 105%
activity at 0.1 µM [5]: 110%
activity at 0.1 µM [6]: 78.7%
activity at 0.1 µM (24 h, read-out: cm.bpm.24hrs): 97.4%
activity at 0.1 µM [7]: 94.2%
activity at 0.1 µM [8]: 100%
activity at 1 µM [5]: 88.2%
activity at 1 µM [6]: 107%
activity at 1 µM (24 h, read-out: cm.bpm.24hrs): 99.3%
activity at 1 µM [7]: 102%
activity at 1 µM [8]: 97%
activity at 10 µM [5]: 22%
activity at 10 µM [6]: 101%
activity at 10 µM (24 h, read-out: cm.bpm.24hrs): 56.3%
activity at 10 µM [7]: 44.1%
activity at 10 µM [8]: 54.5%
activity at 100 µM [5]: 0%
activity at 100 µM [6]: 0%
activity at 100 µM (24 h, read-out: cm.bpm.24hrs): 0%
activity at 100 µM [7]: 0%
activity at 100 µM [8]: 0%

O=C1C=CC(=O)C(c2ccc(Cl)cc2)=C1 [4-Cl-BQ, 2-(4-Chlorophenyl)benzo-2,5-quinone]
activity at 0.01 µM [1]: 91.7%
activity at 0.01 µM [2]: 113%
activity at 0.01 µM (1.5 h, read-out: cm.bpm.90min): 103%
activity at 0.01 µM [3]: 99.5%
activity at 0.01 µM [4]: 135%
activity at 0.1 µM [1]: 92.1%
activity at 0.1 µM [2]: 88.6%
activity at 0.1 µM (1.5 h, read-out: cm.bpm.90min): 100%
activity at 0.1 µM [3]: 96.6%
activity at 0.1 µM [4]: 99.9%
activity at 1 µM [1]: 92.1%
activity at 1 µM [2]: 105%
activity at 1 µM (1.5 h, read-out: cm.bpm.90min): 95.3%
activity at 1 µM [3]: 107%
activity at 1 µM [4]: 104%
activity at 10 µM [1]: 101%
activity at 10 µM [2]: 118%
activity at 10 µM (1.5 h, read-out: cm.bpm.90min): 124%
activity at 10 µM [3]: 104%
activity at 10 µM [4]: 225%
activity at 100 µM [1]: 0%
activity at 100 µM [2]: 0%
activity at 100 µM (1.5 h, read-out: cm.bpm.90min): 0%
activity at 100 µM [3]: 0%
activity at 100 µM [4]: 0%
activity at 0.01 µM [5]: 112%
activity at 0.01 µM [6]: 125%
activity at 0.01 µM (24 h, read-out: cm.bpm.24hrs): 101%
activity at 0.01 µM [7]: 85.3%
activity at 0.01 µM [8]: 104%
activity at 0.1 µM [5]: 97.3%
activity at 0.1 µM [6]: 130%
activity at 0.1 µM (24 h, read-out: cm.bpm.24hrs): 100%
activity at 0.1 µM [7]: 96.8%
activity at 0.1 µM [8]: 92.5%
activity at 1 µM [5]: 105%
activity at 1 µM [6]: 96.8%
activity at 1 µM (24 h, read-out: cm.bpm.24hrs): 93.6%
activity at 1 µM [7]: 103%
activity at 1 µM [8]: 98.4%
activity at 10 µM [5]: 45.5%
activity at 10 µM [6]: 56.6%
activity at 10 µM (24 h, read-out: cm.bpm.24hrs): 64.9%
activity at 10 µM [7]: 72.1%
activity at 10 µM [8]: 63.9%
activity at 100 µM [5]: 0%
activity at 100 µM [6]: 0%
activity at 100 µM (24 h, read-out: cm.bpm.24hrs): 0%
activity at 100 µM [7]: 0%
activity at 100 µM [8]: 0%
